Results from PubChem BioAssay (NCI).
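Interpolation was linear, between the two tested concentrations surrounding the appropriate level; five concentrations were tested over 48 hours in 96-well plates. At the TGI there is no net growth.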

Legend:
Test in all cases: NCI tumour cell line growth inhibition, 48 h
CCRF-CEM leukemia = system: CCRF-CEM leukemia
HL-60(TB) leukemia = system: HL-60(TB) leukemia
RPMI-8226 leukemia = system: RPMI-8226 leukemia
OVCAR-8 ovarian = system: OVCAR-8 ovarian
EKVX NSCLC = system: EKVX NSCLC
NCI-H23 lung = system: NCI-H23 lung
SNB-19 CNS = system: SNB-19 CNS
RXF 393 renal = system: RXF 393 renal
A498 renal = system: A498 renal

In the case of `CCOC(=O)C(Br)=C1OC(=O)c2ccccc2-c2ccccc21` (mixture of isomers), the TGI (CCRF-CEM leukemia) is reported as 40.2 µM, the TGI (HL-60(TB) leukemia) is reported as 35 µM and the TGI (RPMI-8226 leukemia) is reported as 38.1 µM. For the same molecule, the TGI (OVCAR-8 ovarian) was 75.8 µM, the TGI (EKVX NSCLC) was over 100 µM and the TGI (NCI-H23 lung) was 48 µM.
`FC(F)(F)c1ccc2nc(NCc3ccccc3)c(-c3ccccc3)nc2c1` gave a TGI (CCRF-CEM leukemia) of over 100 µM, a TGI (HL-60(TB) leukemia) of 48.9 µM and a TGI (RPMI-8226 leukemia) of 98.9 µM. The TGI (SNB-19 CNS) was over 100 µM, the TGI (RXF 393 renal) was 71.5 µM and the TGI (OVCAR-8 ovarian) was over 100 µM. For the same molecule, the TGI (EKVX NSCLC) was over 100 µM and the TGI (NCI-H23 lung) was over 100 µM.
With `C[N+](C)(C)CC(=O)N/N=C(/Cc1cc(=O)oc2cc(O)ccc12)C(=O)Nc1ccc(Cl)cc1` the TGI (A498 renal) was over 100 µM, the TGI (CCRF-CEM leukemia) was over 100 µM and the TGI (HL-60(TB) leukemia) was over 100 µM. For the same molecule, the TGI (RPMI-8226 leukemia) was over 100 µM, the TGI (SNB-19 CNS) was over 100 µM and the TGI (RXF 393 renal) was over 100 µM. It also gave a TGI (OVCAR-8 ovarian) of over 100 µM, a TGI (EKVX NSCLC) of over 100 µM and a TGI (NCI-H23 lung) of over 100 µM.
`CCCCCCCCCCCC[N+]12CC[N+](CCN)(CC1)CC2` was tested, and the TGI (CCRF-CEM leukemia) was over 100 µM, the TGI (HL-60(TB) leukemia) was over 100 µM and the TGI (RPMI-8226 leukemia) was over 100 µM. The TGI (SNB-19 CNS) was 64.3 µM, the TGI (RXF 393 renal) was 18.1 µM and the TGI (OVCAR-8 ovarian) was over 100 µM. It also gave a TGI (EKVX NSCLC) of over 100 µM and a TGI (NCI-H23 lung) of over 100 µM.
Work on `CC12c3ccccc3C(OC=O)(c3ccccc31)C1(C)c3ccccc3C2(OC=O)c2ccccc21` yielded a TGI (A498 renal) of over 100 µM, a TGI (CCRF-CEM leukemia) of 89.1 µM and a TGI (HL-60(TB) leukemia) of over 100 µM. For the same molecule, the TGI (RPMI-8226 leukemia) was over 100 µM, the TGI (SNB-19 CNS) was over 100 µM and the TGI (RXF 393 renal) was over 100 µM. For the same molecule, the TGI (OVCAR-8 ovarian) was over 100 µM, the TGI (EKVX NSCLC) was over 100 µM and the TGI (NCI-H23 lung) was over 100 µM.
Work on `CC(=O)N/C(=C\c1ccccc1/C=C(\NC(C)=O)c1nc2cc(C)c(C)cc2[nH]1)c1nc2cc(C)c(C)cc2[nH]1` yielded a TGI (A498 renal) of over 100 µM, a TGI (CCRF-CEM leukemia) of over 100 µM and a TGI (RPMI-8226 leukemia) of 64.7 µM. The TGI (SNB-19 CNS) was over 100 µM, the TGI (OVCAR-8 ovarian) was 40.9 µM and the TGI (EKVX NSCLC) was 32.5 µM. For the same molecule, the TGI (NCI-H23 lung) was 94.9 µM.
`O=C1C=C(c2c(O)ccc3ccccc23)c2cc(O)ccc2C1=O` showed a TGI (RPMI-8226 leukemia) of over 100 µM, a TGI (SNB-19 CNS) of 31.3 µM and a TGI (RXF 393 renal) of 29.1 µM. For the same molecule, the TGI (OVCAR-8 ovarian) was 28.9 µM, the TGI (EKVX NSCLC) was 38.2 µM and the TGI (NCI-H23 lung) was 29.7 µM.
For `CC1=C(C(=O)Nc2ccccc2)C(c2ccc(Cl)c(Cl)c2)C(C(=O)Nc2ccccc2)=C(C)N1`, the TGI (A498 renal) was 33.4 µM, the TGI (CCRF-CEM leukemia) was 71.4 µM and the TGI (SNB-19 CNS) was 32.6 µM. For the same molecule, the TGI (RXF 393 renal) was 21.7 µM, the TGI (OVCAR-8 ovarian) was 27.9 µM and the TGI (EKVX NSCLC) was 30.9 µM. For the same molecule, the TGI (NCI-H23 lung) was 27 µM.
In the case of `CCCN(CCC)c1c([N+](=O)[O-])cc(C(=O)N(CC)CC)cc1[N+](=O)[O-]`, the TGI (CCRF-CEM leukemia) is reported as 60.9 µM, the TGI (HL-60(TB) leukemia) is reported as 50.8 µM and the TGI (RPMI-8226 leukemia) is reported as 36.3 µM. The TGI (SNB-19 CNS) was over 100 µM, the TGI (RXF 393 renal) was 63 µM and the TGI (OVCAR-8 ovarian) was 69 µM. It also gave a TGI (EKVX NSCLC) of 61.3 µM and a TGI (NCI-H23 lung) of 40.8 µM.
`CCOc1ccc(OCC(=O)O)c2c1CCCC2=O` gave a TGI (A498 renal) of over 100 µM, a TGI (HL-60(TB) leukemia) of over 100 µM and a TGI (RPMI-8226 leukemia) of over 100 µM. For the same molecule, the TGI (SNB-19 CNS) was over 100 µM, the TGI (RXF 393 renal) was over 100 µM and the TGI (OVCAR-8 ovarian) was over 100 µM. It also gave a TGI (EKVX NSCLC) of over 100 µM and a TGI (NCI-H23 lung) of over 100 µM.
`O=Cc1cc2c(cc1-c1cc3c(cc1C=O)OCO3)OCO2` was tested, and the TGI (A498 renal) was over 100 µM, the TGI (CCRF-CEM leukemia) was 82.7 µM and the TGI (HL-60(TB) leukemia) was over 100 µM. It also gave a TGI (RPMI-8226 leukemia) of over 100 µM, a TGI (SNB-19 CNS) of over 100 µM and a TGI (RXF 393 renal) of 94.1 µM. For the same molecule, the TGI (OVCAR-8 ovarian) was over 100 µM, the TGI (EKVX NSCLC) was over 100 µM and the TGI (NCI-H23 lung) was over 100 µM.
Work on `O=c1[nH]c(=O)n(C2CC(O)C(CO)O2)cc1OS(=O)(=O)C(F)(F)F` (stereo not drawn) yielded a TGI (A498 renal) of over 100 µM, a TGI (CCRF-CEM leukemia) of over 100 µM and a TGI (HL-60(TB) leukemia) of over 100 µM. For the same molecule, the TGI (RPMI-8226 leukemia) was over 100 µM, the TGI (SNB-19 CNS) was over 100 µM and the TGI (RXF 393 renal) was over 100 µM. The TGI (OVCAR-8 ovarian) was over 100 µM, the TGI (EKVX NSCLC) was over 100 µM and the TGI (NCI-H23 lung) was over 100 µM.
For `COc1cc(OC)c(OC)cc1/C=N/NC(=O)N/N=C/c1cc(OC)c(OC)cc1OC`, the TGI (A498 renal) was over 100 µM, the TGI (CCRF-CEM leukemia) was over 100 µM and the TGI (RPMI-8226 leukemia) was over 100 µM. The TGI (SNB-19 CNS) was over 100 µM, the TGI (OVCAR-8 ovarian) was over 100 µM and the TGI (EKVX NSCLC) was over 100 µM. For the same molecule, the TGI (NCI-H23 lung) was over 100 µM.
In the case of `c1ccc2c(c1)CCc1c(-c3ccncc3)n[nH]c1-2`, the TGI (A498 renal) is reported as 79.8 µM, the TGI (CCRF-CEM leukemia) is reported as 61.7 µM and the TGI (HL-60(TB) leukemia) is reported as 88.8 µM. It also gave a TGI (RPMI-8226 leukemia) of 84.2 µM, a TGI (SNB-19 CNS) of over 100 µM and a TGI (OVCAR-8 ovarian) of 88.6 µM. The TGI (EKVX NSCLC) was 75.5 µM and the TGI (NCI-H23 lung) was 58.3 µM.
Work on `Cc1cc2c(cc1C)[n+](=O)cc(C(=O)C/C(=N/NC(=S)NN)C(=O)Nc1cccc(C(F)(F)F)c1)n2[O-]` yielded a TGI (A498 renal) of over 100 µM, a TGI (CCRF-CEM leukemia) of over 100 µM and a TGI (HL-60(TB) leukemia) of over 100 µM. It also gave a TGI (RPMI-8226 leukemia) of over 100 µM, a TGI (SNB-19 CNS) of over 100 µM and a TGI (OVCAR-8 ovarian) of over 100 µM. It also gave a TGI (EKVX NSCLC) of over 100 µM and a TGI (NCI-H23 lung) of over 100 µM.
`COCOCCC#CCO` showed a TGI (A498 renal) of over 100 µM, a TGI (CCRF-CEM leukemia) of over 100 µM and a TGI (HL-60(TB) leukemia) of over 100 µM. For the same molecule, the TGI (RPMI-8226 leukemia) was over 100 µM, the TGI (SNB-19 CNS) was over 100 µM and the TGI (RXF 393 renal) was over 100 µM. The TGI (OVCAR-8 ovarian) was over 100 µM, the TGI (EKVX NSCLC) was over 100 µM and the TGI (NCI-H23 lung) was over 100 µM.
With `Cc1nc2c(N)ncnc2o1` the TGI (A498 renal) was over 100 µM, the TGI (CCRF-CEM leukemia) was over 100 µM and the TGI (HL-60(TB) leukemia) was over 100 µM. It also gave a TGI (SNB-19 CNS) of over 100 µM, a TGI (RXF 393 renal) of over 100 µM and a TGI (OVCAR-8 ovarian) of over 100 µM. The TGI (EKVX NSCLC) was over 100 µM and the TGI (NCI-H23 lung) was over 100 µM.
`C/C(=N\NC(N)=O)c1sc(-c2nc(C)c(/C(C)=N/NC(N)=O)s2)nc1C` gave a TGI (A498 renal) of over 100 µM, a TGI (CCRF-CEM leukemia) of over 100 µM and a TGI (HL-60(TB) leukemia) of over 100 µM. The TGI (RPMI-8226 leukemia) was over 100 µM, the TGI (SNB-19 CNS) was over 100 µM and the TGI (RXF 393 renal) was over 100 µM. It also gave a TGI (OVCAR-8 ovarian) of over 100 µM, a TGI (EKVX NSCLC) of over 100 µM and a TGI (NCI-H23 lung) of over 100 µM.
